# Calls of active or inactive are those of the source. The rule behind the calls is not given here.
# Experiments:
# Nakaseomyces glabratus [1] = assay: Antifungal activity against FLC-resistant Candida glabrata 0161 infected in cyclophosphamide immunosuppressed ICR mouse model assessed as inhibition of fungal growth in kidney at 40 mg/kg,ip administrated for 5 days; format: functional, organism-based; details: time 5.0 day
# Nakaseomyces glabratus [2] = assay: Antifungal activity against fluconazole-resistant Candida glabrata 0161 assessed as fungal growth inhibition incubated for 48 hrs by microplate reader assay; format: functional
# Nakaseomyces glabratus [3] = assay: Synergistic antifungal activity against fluconazole-resistant Candida glabrata 0161 assessed as fractional inhibitory concentration index incubated for 48 hrs in presence of A6 compound by checkerboard microdilution method; format: functional
# Nakaseomyces glabratus [4] = assay: Synergistic antifungal activity against fluconazole-resistant Candida glabrata 0161 assessed as fractional inhibitory concentration index incubated for 48 hrs in presence of A11 compound by checkerboard microdilution method; format: functional
# Nakaseomyces glabratus [5] = assay: Synergistic antifungal activity against fluconazole-resistant Candida glabrata 0161 assessed as fractional inhibitory concentration index incubated for 48 hrs in presence of A1 compound by checkerboard microdilution method; format: functional
# Nakaseomyces glabratus [6] = assay: Synergistic antifungal activity against fluconazole-resistant Candida glabrata 0161 assessed as fractional inhibitory concentration index incubated for 48 hrs in presence of A2 compound by checkerboard microdilution method; format: functional
# Nakaseomyces glabratus [7] = assay: Synergistic antifungal activity against fluconazole-resistant Candida glabrata 0161 assessed as fractional inhibitory concentration index incubated for 48 hrs in presence of A3 compound by checkerboard microdilution method; format: functional
# Nakaseomyces glabratus [8] = assay: Synergistic antifungal activity against fluconazole-resistant Candida glabrata 0161 assessed as fractional inhibitory concentration index incubated for 48 hrs in presence of A4 compound by checkerboard microdilution method; format: functional
# Nakaseomyces glabratus [9] = assay: Synergistic antifungal activity against fluconazole-resistant Candida glabrata 0161 assessed as fractional inhibitory concentration index incubated for 48 hrs in presence of A5 compound by checkerboard microdilution method; format: functional
# Nakaseomyces glabratus [10] = assay: Synergistic antifungal activity against fluconazole-resistant Candida glabrata 0161 assessed as fractional inhibitory concentration index incubated for 48 hrs in presence of A7 compound by checkerboard microdilution method; format: functional
# Nakaseomyces glabratus [11] = assay: Synergistic antifungal activity against fluconazole-resistant Candida glabrata 0161 assessed as fractional inhibitory concentration index incubated for 48 hrs in presence of A8 compound by checkerboard microdilution method; format: functional
# Nakaseomyces glabratus [12] = assay: Synergistic antifungal activity against fluconazole-resistant Candida glabrata 0161 assessed as fractional inhibitory concentration index incubated for 48 hrs in presence of A9 compound by checkerboard microdilution method; format: functional
# Nakaseomyces glabratus [13] = assay: Synergistic antifungal activity against fluconazole-resistant Candida glabrata 0161 assessed as fractional inhibitory concentration index incubated for 48 hrs in presence of A10 compound by checkerboard microdilution method; format: functional
# Nakaseomyces glabratus [14] = assay: Synergistic antifungal activity against fluconazole-resistant Candida glabrata 0161 assessed as fractional inhibitory concentration index incubated for 48 hrs in presence of A12 compound by checkerboard microdilution method; format: functional
# Nakaseomyces glabratus [15] = assay: Synergistic antifungal activity against fluconazole-resistant Candida glabrata 0161 assessed as fractional inhibitory concentration index incubated for 48 hrs in presence of A13 compound by checkerboard microdilution method; format: functional
# Nakaseomyces glabratus [16] = assay: Synergistic antifungal activity against fluconazole-resistant Candida glabrata 0161 assessed as fractional inhibitory concentration index incubated for 48 hrs in presence of A14 compound by checkerboard microdilution method; format: functional
# Nakaseomyces glabratus [17] = assay: Synergistic antifungal activity against fluconazole-resistant Candida glabrata 0161 assessed as fractional inhibitory concentration index incubated for 48 hrs in presence of B1 compound by checkerboard microdilution method; format: functional
# Nakaseomyces glabratus [18] = assay: Synergistic antifungal activity against fluconazole-resistant Candida glabrata 0161 assessed as fractional inhibitory concentration index incubated for 48 hrs in presence of B2 compound by checkerboard microdilution method; format: functional
# Nakaseomyces glabratus [19] = assay: Synergistic antifungal activity against fluconazole-resistant Candida glabrata 0161 assessed as fractional inhibitory concentration index incubated for 48 hrs in presence of B3 compound by checkerboard microdilution method; format: functional
# Nakaseomyces glabratus [20] = assay: Synergistic antifungal activity against fluconazole-resistant Candida glabrata 0161 assessed as fractional inhibitory concentration index incubated for 48 hrs in presence of B4 compound by checkerboard microdilution method; format: functional
# Nakaseomyces glabratus [21] = assay: Synergistic antifungal activity against fluconazole-resistant Candida glabrata 0161 assessed as fractional inhibitory concentration index incubated for 48 hrs in presence of B5 compound by checkerboard microdilution method; format: functional
# Nakaseomyces glabratus [22] = assay: Synergistic antifungal activity against fluconazole-resistant Candida glabrata 0161 assessed as fractional inhibitory concentration index incubated for 48 hrs in presence of B6 compound by checkerboard microdilution method; format: functional
# Nakaseomyces glabratus [23] = assay: Synergistic antifungal activity against fluconazole-resistant Candida glabrata 0161 assessed as fractional inhibitory concentration index incubated for 48 hrs in presence of B7 compound by checkerboard microdilution method; format: functional
# Nakaseomyces glabratus [24] = assay: Synergistic antifungal activity against fluconazole-resistant Candida glabrata 0161 assessed as fractional inhibitory concentration index incubated for 48 hrs in presence of B8 compound by checkerboard microdilution method; format: functional
# Nakaseomyces glabratus [25] = assay: Antifungal activity against fluconazole-resistant Candida glabrata 0161 assessed as fungal growth inhibition at 16 ug/ml incubated for 48 hrs by time-growth curve assay; format: functional, organism-based; details: dose 16.0 µg/ml
# Nakaseomyces glabratus [26] = assay: Antifungal activity against fluconazole-resistant Candida glabrata 0161 assessed as inhibition of fungal biofilm formation at 32 ug/ml incubated for 24 hrs by XXT reduction menadione assay; format: functional
# Nakaseomyces glabratus [27] = assay: Synergistic antifungal activity against fluconazole-resistant Candida glabrata 0161 assessed as inhibition of fungal biofilm formation at 4 ug/ml incubated for 24 hrs in presence of compound B8 by XXT reduction menadione assay; format: functional
# Nakaseomyces glabratus [28] = assay: Antifungal activity against fluconazole-resistant Candida glabrata 0161 assessed as inhibition of fungal mature biofilm formation at 0.25 to 64 ug/ml incubated for 24 hrs by XXT reduction menadione assay; format: functional, organism-based; details: dose 0.25-64 µg/ml
# Nakaseomyces glabratus [29] = assay: Antifungal activity against fluconazole-resistant Candida glabrata 0161 assessed as downregulation of PDR1 gene expression at 32 ug/ml by RT-PCR analysis; format: functional, organism-based; details: dose 32.0 µg/ml
# Nakaseomyces glabratus [30] = assay: Antifungal activity against fluconazole-resistant Candida glabrata 0161 assessed as downregulation of CDR1 gene expression at 32 ug/ml by RT-PCR analysis; format: functional, organism-based; details: dose 32.0 µg/ml
# Nakaseomyces glabratus [31] = assay: Antifungal activity against fluconazole-resistant Candida glabrata 0161 assessed as downregulation of CDR2 gene expression at 32 ug/ml by RT-PCR analysis; format: functional, organism-based; details: dose 32.0 µg/ml
# Nakaseomyces glabratus [32] = assay: Antifungal activity against fluconazole-resistant Candida glabrata 0161 assessed as downregulation of ERG11 gene expression at 32 ug/ml by RT-PCR analysis; format: functional, organism-based; details: dose 32.0 µg/ml
# Nakaseomyces glabratus [33] = assay: Antifungal activity against FLC-resistant Candida glabrata 0161 infected in cyclophosphamide immunosuppressed ICR mouse model assessed as inhibition of fungal growth in kidney at 5 mg/kg,ip administrated for 5 days; format: functional, organism-based; details: time 5.0 day
# Nakaseomyces glabratus [34] = assay: Antifungal activity against FLC-resistant Candida glabrata 0161 infected in cyclophosphamide immunosuppressed ICR mouse model assessed as pathological change in kidney at 5 mg/kg,ip administrated for 5 days by Hematoxylin and eosin staining based analysis; format: functional, organism-based; details: time 5.0 day
# [35] = Inhibition of fluorescent probe FITC tagged PDR1-KIX domain (unknown origin) protein-protein interaction assessed as inhibition constant incubated for 2 hrs by fluorescence polarization binding assay
# Nakaseomyces glabratus [36] = assay: Antifungal activity against fluconazole-resistant Candida glabrata 0161 assessed as fractional inhibitory concentration incubated for 48 hrs in presence of fluconazole by microplate reader assay; format: functional
# Nakaseomyces glabratus [37] = assay: Antifungal activity against fluconazole-resistant Candida glabrata 0161 assessed as fluconazole fractional inhibitory concentration incubated for 48 hrs in presence of fluconazole by microplate reader assay; format: functional
# Nakaseomyces glabratus [38] = assay: Synergistic antifungal activity against fluconazole-resistant Candida glabrata 0161 assessed as fractional inhibitory concentration index incubated for 48 hrs in presence of fluconazole by checkerboard microdilution method; format: functional
# Nakaseomyces glabratus [39] = assay: Antifungal activity against fluconazole-resistant Candida glabrata 9256 assessed as fungal growth inhibition incubated for 48 hrs by microplate reader assay; format: functional
# Nakaseomyces glabratus [40] = assay: Antifungal activity against fluconazole-resistant Candida glabrata 8535 assessed as fungal growth inhibition incubated for 48 hrs by microplate reader assay; format: functional
# Candida albicans = assay: Antifungal activity against Candida albicans assessed as fungal growth inhibition incubated for 48 hrs by microplate reader assay; format: functional
# Candida tropicalis = assay: Antifungal activity against Candida tropicalis 10186 assessed as fungal growth inhibition incubated for 48 hrs by microplate reader assay; format: functional
# Candida parapsilosis = assay: Antifungal activity against Candida parapsilosis 20090 assessed as fungal growth inhibition incubated for 48 hrs by microplate reader assay; format: functional; details: Lodderomyces parapsilosis
# [Candida] auris [41] = Antifungal activity against Candida auris 0030 assessed as fungal growth inhibition incubated for 48 hrs by microplate reader assay; format: functional; details: Candidozyma auris
# [Candida] auris [42] = Antifungal activity against Candida auris 15448 assessed as fungal growth inhibition incubated for 48 hrs by microplate reader assay; format: functional; details: Candidozyma auris
# Aspergillus fumigatus = assay: Antifungal activity against Aspergillus fumigatus 7544 assessed as fungal growth inhibition incubated for 48 hrs by microplate reader assay; format: functional
# Nannizzia gypsea = assay: Antifungal activity against Microsporum gypseum assessed as fungal growth inhibition incubated for 48 hrs by microplate reader assay; format: functional
# Trichophyton rubrum = assay: Antifungal activity against Trichophyton rubrum assessed as fungal growth inhibition incubated for 48 hrs by microplate reader assay; format: functional
# Cryptococcus neoformans = assay: Antifungal activity against Cryptococcus neoformans H99 assessed as fungal growth inhibition incubated for 48 hrs by microplate reader assay; format: functional
compound,measurement,setting,value
OC(Cn1cncn1)(Cn1cncn1)c1ccc(F)cc1F [FLUCONAZOLE],Activity,Nakaseomyces glabratus [1],Active
same,MIC,Nakaseomyces glabratus [2],32 µg/mL
same,fractional inhibitory concentration index (FICI),Nakaseomyces glabratus [3],0.25
same,fractional inhibitory concentration index (FICI),Nakaseomyces glabratus [4],0.52
same,fractional inhibitory concentration index (FICI),Nakaseomyces glabratus [5],0.31
same,fractional inhibitory concentration index (FICI),Nakaseomyces glabratus [6],0.56
same,fractional inhibitory concentration index (FICI),Nakaseomyces glabratus [7],0.56
same,fractional inhibitory concentration index (FICI),Nakaseomyces glabratus [8],0.53
same,fractional inhibitory concentration index (FICI),Nakaseomyces glabratus [9],0.56
same,fractional inhibitory concentration index (FICI),Nakaseomyces glabratus [10],0.38
same,fractional inhibitory concentration index (FICI),Nakaseomyces glabratus [11],0.53
same,fractional inhibitory concentration index (FICI),Nakaseomyces glabratus [12],0.53
same,fractional inhibitory concentration index (FICI),Nakaseomyces glabratus [13],0.53
same,fractional inhibitory concentration index (FICI),Nakaseomyces glabratus [14],0.53
same,fractional inhibitory concentration index (FICI),Nakaseomyces glabratus [15],0.53
same,fractional inhibitory concentration index (FICI),Nakaseomyces glabratus [16],0.56
same,fractional inhibitory concentration index (FICI),Nakaseomyces glabratus [17],0.53
same,fractional inhibitory concentration index (FICI),Nakaseomyces glabratus [18],0.29
same,fractional inhibitory concentration index (FICI),Nakaseomyces glabratus [19],0.31
same,fractional inhibitory concentration index (FICI),Nakaseomyces glabratus [20],0.31
same,fractional inhibitory concentration index (FICI),Nakaseomyces glabratus [21],0.76
same,fractional inhibitory concentration index (FICI),Nakaseomyces glabratus [22],0.53
same,fractional inhibitory concentration index (FICI),Nakaseomyces glabratus [23],0.52
same,fractional inhibitory concentration index (FICI),Nakaseomyces glabratus [24],0.28
same,Activity,Nakaseomyces glabratus [25],inactive
same,inhibition at 32 µg/mL,Nakaseomyces glabratus [26],39%
same,inhibition at 4 µg/mL,Nakaseomyces glabratus [27],33%
same,inhibition,Nakaseomyces glabratus [28],Active
same,Activity,Nakaseomyces glabratus [29],inactive
same,Activity,Nakaseomyces glabratus [30],inactive
same,Activity,Nakaseomyces glabratus [31],inactive
same,Activity,Nakaseomyces glabratus [32],inactive
same,Activity,Nakaseomyces glabratus [33],inactive
same,Activity,Nakaseomyces glabratus [34],Active
Nc1cc(=O)n(C(=S)Nc2ccc(Cl)cc2Cl)[nH]1,Ki,[35],84.7 µM
same,MIC,Nakaseomyces glabratus [2],0.5 µg/mL
same,FIC,Nakaseomyces glabratus [36],0.13 µg/mL
same,fluconazole MIC in combination,Nakaseomyces glabratus [37],1 µg/mL
same,fractional inhibitory concentration index (FICI),Nakaseomyces glabratus [38],0.29
same,MIC,Nakaseomyces glabratus [39],0.25 µg/mL
same,MIC,Nakaseomyces glabratus [40],0.25 µg/mL
same,MIC,Candida albicans,4 µg/mL
same,MIC,Candida tropicalis,4 µg/mL
same,MIC,Candida parapsilosis,4 µg/mL
same,MIC,[Candida] auris [41],2 µg/mL
same,MIC,[Candida] auris [42],2 µg/mL
same,MIC,Aspergillus fumigatus,16 µg/mL
same,MIC,Nannizzia gypsea,1 µg/mL
same,MIC,Trichophyton rubrum,1 µg/mL
same,MIC,Cryptococcus neoformans,0.063 µg/mL
